Measured values from patent US20110136792A1, “NOVEL CARBOXYLIC ACID ANALOGS AS GLYCOGEN SYNTHASE ACTIVATORS” (priority 2009, published 2011).

Test system: glycogen synthase
Experiment: Glycogen Synthase (GS) Assay
Format: biochemical
Conditions: coupled pyruvate kinase/lactate dehydrogenase assay, absorbance at 340 nm; for EC50: compound concentration needed to give 50% maximum activation; for GS SC200: compound concentration needed to stimulate 200% of the enzyme activity
Procedure: The following tests were carried out in order to determine the activity of the compounds of formula (I).
Twelve μL per well of substrate solution containing glycogen (4.32 mg/ml), 2.67 mM UDP-glucose, 21.6 mM phospho(enol)pyruvate and 2.7 mM NADH in 30 mM glycylglycine, pH 7.3 buffer was added into a polystyrene 384-well assay plate (BD Biosciences).
Compound solutions (8 μL/well) at various concentrations (0-300 μM) were added to the assay plate (columns 5-24). Compound solution contains 30 mM glycylglycine, pH 7.3, 40 mM KCl, 20 mM MgCl2, 9.2% DMSO, with (columns 15-24) or without (columns 5-14) 20 mM glucose 6-phosphate.
Enzyme solution (12 μL/well) containing glycogen synthase (16.88 μg/ml), pyruvate kinase (0.27 mg/ml), lactate dehydrogenase (0.27 mg/ml) in 50 mM Tris-HCl, pH 8.0, 27 mM DTT and bovine serum albumin (BSA, 0.2 mg/ml) was added to the assay plate (columns 3-24). As a blank control, enzyme solution without glycogen synthase was added into the top half wells of columns 1-2. To the bottom half wells of columns 1-2 were added a known activator, glucose 6-phosphate (at final concentration 5 mM) in addition to the enzyme solution. The reaction mixture was incubated at room temperature. The assay plate was then read for absorbance at 340 nm on an Envision reader every 3 minutes up to a total of 15 minutes.
The enzyme activity (with or without compound) was calculated by the reaction rate and represented by the optical density change (δOD) per minute. Percent stimulation of glycogen synthase activity by a compound at various concentrations was calculated by the following formula: […]
Where Rs is the reaction rate of the enzyme in the presence of compound and Rt is the reaction rate of the enzyme in the absence of compound.
SC200 is defined as the compound concentration that is needed to stimulate 200% of the enzyme activity. EC50 is defined as the compound concentration that is needed to give 50% maximum activation.
Compounds from Examples 1 through Example 64 were assayed according to assay procedures described above and the result is listed in Table 1 below: […]

EC50 [nM] | Structure (SMILES) | GS SC200 [µM]
16600 | O=C(O)[C@H]1CCS(=O)(=O)N1Cc1csc(COc2ccc(-c3cc(F)c(F)cc3F)cc2)n1 [Example 59, (R)-1,1-Dioxo-2-[2-(2′,4′,5′-trifluoro-biphenyl-4-yloxymethyl)-thiazol-4-ylmethyl]-1lambda*V-isothiazolidine-3-carboxylic acid] | 6.06
1530 | COCC(C)C(=O)N(CC(=O)O)Cc1cccc(COc2ccc(-c3ccc(F)cc3F)cc2)c1 (stereo not shown) [Example 17, [[3-(2′,4′-Difluoro-biphenyl-4-yloxymethyl)-benzyl]-(3-methoxy-2-methyl-propionyl)-amino]-acetic acid] | 0.36
120 | COc1cc(F)c(F)cc1-c1ccc(OCc2cccc(CN3[C@H](C(=O)O)CCS3(=O)=O)c2)cc1 [Example 45, (S)-2-[3-(4′,5′-Difluoro-2′-methoxy-biphenyl-4-yloxymethyl)-benzyl]-1,1-dioxo-1lambda*6*-isothiazolidine-3-carboxylic acid] | 0.02
3670 | CC(C)(C)C(=O)N(CC(=O)O)Cc1cccc(COc2ccc(-c3ccc(F)cc3F)cc2)c1 [Example 11, [[3-(2′,4′-Difluoro-biphenyl-4-yloxymethyl)-benzyl]-(2,2-dimethyl-propionyl)-amino]-acetic acid] | 0.97
340 | COc1cc(F)c(F)cc1-c1ccc(OCc2cccc(CN(CC(=O)O)C(=O)c3cn(C)cn3)c2)cc1 [Example 29, [[3-(4′,5′-Difluoro-2′-methoxy-biphenyl-4-yloxymethyl)-benzyl]-(1-methyl-1H-imidazole-4-carbonyl)-amino]-acetic acid] | 0.01
430 | COc1cc(F)c(F)cc1-c1ccc(OCc2nc(CN3[C@H](C(=O)O)CCS3(=O)=O)cs2)cc1 [Example 62, (S)-2-[2-(4′,5′-Difluoro-2′-methoxy-biphenyl-4-yloxymethyl)-thiazol-4-ylmethyl]-1,1-dioxo-1lambda*6*-isothiazolidine-3-carboxylic acid] | 0.26
4310 | O=C(O)CN(Cc1cccc(COc2ccc(-c3ccc(F)cc3F)cc2)c1)C(=O)C1CC1 [Example 12, {Cyclopropanecarbonyl-[3-(2′,4′-difluoro-biphenyl-4-yloxymethyl)-benzyl]-amino}-acetic acid] | 0.75
480 | COCC(C)C(=O)N(CC(=O)O)Cc1cccc(COc2ccc(-c3cc(F)c(F)cc3OC)cc2)c1 (stereo not shown) [Example 31] | 0.07
520 | COc1cc(F)c(F)cc1-c1ccc(OCc2cccc(CN(CC(=O)O)C(=O)c3cscn3)c2)cc1 [Example 27, [[3-(4′,5′-Difluoro-2′-methoxy-biphenyl-4-yloxymethyl)-benzyl]-(thiazole-4-carbonyl)-amino]-acetic acid] | 0.08
150 | O=C(O)C1CCS(=O)(=O)N1Cc1ccc(F)c(COc2ccc(-c3ccc(F)cc3F)cc2)c1 (stereo not shown) [Example 41, 2-[3-(2′,4′-Difluoro-biphenyl-4-yloxymethyl)-4-fluoro-benzyl]-1,1-dioxo-1lambda*6*-isothiazolidine-3-carboxylic acid] | 0.07
260 | COc1cc(F)c(F)cc1-c1ccc(OCc2cccc(CN(CC(=O)O)C(=O)C3CC3)c2)cc1 [Example 22, {Cyclopropanecarbonyl-[3-(4′,5′-difluoro-2′-methoxy-biphenyl-4-yloxymethyl)-benzyl]-amino}-acetic acid] | 0.03
2340 | O=C(O)[C@H]1CCCS(=O)(=O)N1Cc1cccc(COc2ccc(-c3cc(F)c(F)cc3F)cc2)c1 [Example 57, (R)-1,1-Dioxo-2-[3-(2′,4′,5′-trifluoro-biphenyl-4-yloxymethyl)-benzyl]-1lambda*6*-[1,2]thiazinane-3-carboxylic acid] | 1.22
450 | COCCC(=O)N(CC(=O)O)Cc1cccc(COc2ccc(-c3cc(F)c(F)cc3OC)cc2)c1 [Example 26, [[3-(4′,5′-Difluoro-2′-methoxy-biphenyl-4-yloxymethyl)-benzyl]-(3-methoxy-propionyl)-amino]-acetic acid] | 0.05
370 | CCC(=O)N(CC(=O)O)Cc1cccc(COc2ccc(-c3cc(F)c(F)cc3OC)cc2)c1 [Example 23, {[3-(4′,5′-Difluoro-2′-methoxy-biphenyl-4-yloxymethyl)-benzyl]-propionyl-amino}-acetic acid] | 0.10
1430 | O=C(O)CN(Cc1cccc(COc2ccc(-c3ccc(F)cc3F)cc2)c1)C(=O)c1cccnc1 [Example 15, [[3-(2′,4′-Difluoro-biphenyl-4-yloxymethyl)-benzyl]-(pyridine-3-carbonyl)-amino]-acetic acid] | 0.15
4900 | COc1cc(F)c(F)cc1-c1ccc(OCc2cccc(CNCC(=O)O)c2)cc1.Cl [Example 37, [3-(4′,5′-Difluoro-2′-methoxy-biphenyl-4-yloxymethyl)-benzylamino]-acetic acid] | 0.38
1310 | Cn1ccnc1C(=O)N(CC(=O)O)Cc1cccc(COc2ccc(-c3ccc(F)cc3F)cc2)c1 [Example 14, [[3-(2′,4′-Difluoro-biphenyl-4-yloxymethyl)-benzyl]-(1-methyl-imidazole-2-carbonyl)-amino]-acetic acid] | 0.15
180 | Cc1cc(F)c(F)cc1-c1ccc(OCc2cccc(CN3C(C(=O)O)CCS3(=O)=O)c2)cc1 (racemic) [Example 39, 2-[3-(4′,5′-Difluoro-2′-methyl-biphenyl-4-yloxymethyl)-benzyl]-1,1-dioxo-1lambda*6*-isothiazolidine-3-carboxylic acid] | 0.03
190 | COc1cc(F)c(F)cc1-c1ccc(OCc2cccc(CN3C(C(=O)O)CCS3(=O)=O)c2)cc1 (racemic) [Example 43, 2-[3-(4′,5′-Difluoro-2′-methoxy-biphenyl-4-yloxymethyl)-benzyl]-1,1-dioxo-1lambda*6*-isothiazolidine-3-carboxylic acid] | 0.03
60 | O=C(O)[C@@H]1CCCS(=O)(=O)N1Cc1cccc(COc2ccc(-c3cc(F)c(F)cc3F)cc2)c1 [Example 58, (S)-1,1-Dioxo-2-[3-(2′,4′,5′-trifluoro-biphenyl-4-yloxymethyl)-benzyl]-1lambda*6*-[1,2]thiazinane-3-carboxylic acid] | 0.04
410 | COc1cc(F)c(F)cc1-c1ccc(OCc2cccc(CN(CC(=O)O)C(=O)[C@@H]3CCCO3)c2)cc1 [Example 25, [[3-(4′,5′-Difluoro-2′-methoxy-biphenyl-4-yloxymethyl)-benzyl]-((S)-tetrahydro-furan-2-carbonyl)-amino]-acetic acid] | 0.07
110 | Cc1cc(F)c(F)cc1-c1ccc(OCc2cccc(CN3[C@H](C(=O)O)CCS3(=O)=O)c2)cc1 [Example 48, (S)-2-[3-(4′,5′-Difluoro-2′-methyl-biphenyl-4-yloxymethyl)-benzyl]-1,1-dioxo-1lambda*6*-isothiazolidine-3-carboxylic acid] | 0.01
3710 | O=C(O)C(F)(F)F.O=C(O)[C@@H]1CCCN1Cc1cccc(COc2ccc(-c3ccc(F)cc3F)cc2)c1 [Example 54, (S)-1-[3-(2′,4′-Difluoro-biphenyl-4-yloxymethyl)-benzyl]-pyrrolidine-2-carboxylic acid; trifluoro-acetic acid salt] | 0.90
1080 | COc1cc(F)c(F)cc1-c1ccc(OCc2cccc(CN(CC(=O)O)C(=O)CC(C)C)c2)cc1 [Example 2, [[3-(4′,5′-Difluoro-2′-methoxy-biphenyl-4-yloxymethyl)-benzyl]-(3-methyl-butyryl)-amino]-acetic acid] | 0.13
470 | COc1cc(F)c(F)cc1-c1ccc(OCc2cccc(CN(CC(=O)O)C(=O)OC(C)C)c2)cc1 [Example 6, {[3-(4′,5′-Difluoro-2′-methoxy-biphenyl-4-yloxymethyl)-benzyl]-isopropoxycarbonyl-amino}-acetic acid] | 0.03
1820 | COC(=O)N(CC(=O)O)Cc1cccc(COc2ccc(-c3cc(F)c(F)cc3OC)cc2)c1 [Example 19, {[3-(4′,5′-Difluoro-2′-methoxy-biphenyl-4-yloxymethyl)-benzyl]-methoxycarbonyl-amino}-acetic acid] | 0.42
